In patent publication US5491131A, “Somatostatin-active polypeptide composition” (Applied Research Systems ARS Holding NV, priority 1989, dated 1996):
Entries after “also recorded” stand apart in the source; their conditions may differ.

What was measured:
[1] = system: rat mesangial cells in culture; test: Prevention of hydrogen peroxide induced contraction of mesangial cells (CSA); assay type: cell-based, Wistar rats; conditions: for effect on hydrogen peroxide induced reduction in CSA: preincubation 10 minutes before hydrogen peroxide 10^-4 M; for change in CSA compared with the control: somatostatin alone
Experimental: (§1) The mesangial cells were obtained after glomeruli isolation by differential sieving (R. P. Misra. Am. J. Clin. Pathol 1972 58 135-139) and collagenase digestion of kidney tissue from Wistar rats. The cell surface area (CSA) was measured using a digital planimeter.
(§2) Microphotographs were taken at different times and the CSA measured. Each experiment was repeated three times and a total of 8-15 cells were measured for each part of each experiment. The results are expressed as a percentage increase or decrease over the initial CSA, […].

[2] = system: rat mesangial cells in culture; test: Reversal of hydrogen peroxide induced contraction of mesangial cells (CSA); assay type: cell-based, Wistar rats; conditions: for effect on CSA of untreated cells: somatostatin alone
Experimental: as §1, §2

[3] = system: rat mesangial cells in culture; test: Prevention of angiotensin II induced contraction of mesangial cells (cell surface area, CSA); assay type: cell-based, Wistar rats; conditions: for effect on contractile effect of angiotensin (CSA): preincubation 10 minutes before angiotensin II 10^-8 M
Experimental: as §1
In experiments concerned with the ability of somatostatin to prevent contraction, the mesangial cells were incubated with somatostatin for ten minutes at a concentration of 10^-6 M or 10^-8 M before the addition of angiotensin II (10^-8 M) or hydrogen peroxide (10^-4 M).
(§3) In all these experiments, control cells lacked the addition of somatostatin, angiotensin II or hydrogen peroxide to the buffer.
as §2

[4] = in vivo; cited from earlier work
guanylate cyclase = conditions: some cell types; cited from earlier work
[5] = system: rat mesangial cells in culture; test: Reversal of angiotensin II induced contraction of mesangial cells (CSA); assay type: cell-based, Wistar rats; conditions: FIG. 3
Experimental: as §1
In experiments concerned with the ability of somatostatin to revese contraction, the mesangial cells were incubated for 30 minutes with either angiotensin II or hydrogen peroxide (at the concentrations mentioned above) before somatostatin at a concentration of 10^-6 M or 10^-8 M was added to the cells.
as §3, §2

[6] = somatostatin infusions of 250 to 375 microgrammes; cited from earlier work

OO [hydrogen peroxide]
effect on CSA ([1]; hydrogen peroxide 10^-4 M alone): significant reduction in CSA | contraction of cells treated with only hydrogen peroxide ([2]; hydrogen peroxide 10^-4 M alone, t=0 to t=60 minutes, FIGS. 7, 8, 10): remained in a contracted state; also recorded: contracted to a significant degree

C[C@H](N)C(=O)NCC(=O)N[C@H]1CSSC[C@@H](C(=O)O)NC(=O)[C@H](CO)NC(=O)[C@H]([C@@H](C)O)NC(=O)[C@H](Cc2ccccc2)NC(=O)[C@H]([C@@H](C)O)NC(=O)[C@H](CCCCN)NC(=O)[C@H](Cc2c[nH]c3ccccc23)NC(=O)[C@H](Cc2ccccc2)NC(=O)[C@H](Cc2ccccc2)NC(=O)[C@H](CC(N)=O)NC(=O)[C@H](CCCCN)NC1=O [somatostatin, Somatostatin]
cell size in microphotographs ([3]; cells pre-treated with somatostatin before addition of angiotensin II, FIG. 12): substantially no change in the size of these cells | effect on contractile effect of angiotensin (CSA) ([3]; somatostatin 10^-6 M, FIG. 1): completely preventing the contractile effect of angiotensin II; also recorded: completely inhibited the contractile effect of angiotensin | effect on contractile effect of angiotensin (CSA) ([3]; somatostatin 10^-8 M, FIG. 2): the same effect occurs | effect in isolation on CSA ([3]; somatostatin alone, 10^-6 M, FIG. 1): no significant effect | effect on hydrogen peroxide induced reduction in CSA ([1]; somatostatin 10^-6 M, FIG. 5): equally effective in preventing the contractile effect; also recorded: prevented | effect on hydrogen peroxide induced reduction in CSA ([1]; somatostatin 10^-8 M, FIG. 6): prevented | change in CSA compared with the control ([1]; 10^-6 M, FIG. 5): did not in itself induce any significant change in CSA | change in CSA compared with the control ([1]; 10^-8 M, FIG. 6): did not in itself induce any significant change in CSA | urinary calcium excretion [4]: reduces | cell size in microphotographs ([2]; hydrogen peroxide at t=0, somatostatin added at t=30 minutes, read at t=60 minutes, FIG. 11): relax to almost their original size | reversal of contractile effect of hydrogen peroxide (CSA) ([2]; somatostatin 10^-6 M added 30 minutes after hydrogen peroxide 10^-4 M, read after a further 30 minutes, FIG. 7): reverses contraction; also recorded: CSA returns to normal | reversal of contractile effect of hydrogen peroxide (CSA) ([2]; somatostatin 10^-8 M added 30 minutes after hydrogen peroxide 10^-4 M, FIG. 8): The same effect was demonstrated | effect on CSA of untreated cells ([2]; 10^-6 M, FIG. 7): did not significantly effect CSA | effect on CSA of untreated cells ([2]; 10^-8 M, FIG. 8): did not significantly effect CSA | intracellular cGMP concentrations (guanylate cyclase): increase intracellular cGMP concentrations | change in CSA, incubated in isolation ([5]; somatostatin alone, 10^-6 M): did not observe any significant change in CSA | reduction in heart rate [6]: about 10 beats per minute

angiotensin II [contractile stimulus added to mesangial cells at 10^-8 M]
effect on CSA ([3]; angiotensin II 10^-8 M alone, after 30 minutes incubation): significantly reducing the CSA | persistence of induced contraction ([5]; angiotensin II 10^-8 M alone): persisted for 60 minutes
